Results on 13 compounds are retold here after US10676476B2, “Small-molecule HSP90 inhibitors” (Sloan-Kettering Institute for Cancer Research, priority 2005, dated 2020).

One data set has as its system MDA-MB-468 cells. In words: Anti-mitotic assay (Tg-3 microtiter immunoassay). It is filed as cell-based, human. To be noted: MDA-MB-468 (Rb-defective) cells, 24 h. The protocol:
Anti-Mitotic Assay. Black, clear-bottom microtiter 96-well plates (Corning Costar#3603) were used to accommodate experimental cultures. MDA-MB-468 cells were seeded in each well at 8,000 cells per well in growth medium (100 μL), and allowed to attach overnight at 37° C. and 5% CO2. Growth medium (100 μL) with drug or vehicle (DMSO) was gently added to the wells, and the plates were incubated at 37° C. and 5% CO2 for 24 h. Wells were washed with ice-cold TBST (2×200 μL). A house vacuum source attached to an eight-channel aspirator was used to remove the liquid from the 96-well plates. Ice-cold methanol (100 μL) was added to each well, and the plate was placed at 4° C. for 5 min. Methanol was removed by suction and plates were washed with ice-cold TBST (2×200 μL). Plates were further incubated with SuperBlock® blocking buffer (Pierce #37535) (200 μL) for 2 h at RT. The Tg-3 antibody (gift of Dr. Davies, Albert Einstein College of Medicine) diluted 1:200 in SuperBlock® was placed in each well (100 μL) except the control column that was treated with control antibody (Mouse IgM, NeoMarkers, NC-1030-P). After 72 h, wells were washed with ice-cold TBST (2×200 μL). […] Un-reacted antibody was removed by washing the plates with ice-cold TBST (3×200 μL) for 5 min on a shaker. The ECL™ Western Blotting Detection Reagents 1 and 2 in 1:1 mix (100 μL) was placed in each well and the plates were read immediately in an Analyst AD plate reader (Molecular Devices). Luminescence readings were imported into SOFTmax PROR 4.3.1. Anti-mitotic activity was defined as a concentration dependent increase in luminescence readings in compound-treated wells as compared to DMSO only treated wells.

For another data set, the system named is cancer cells. In words: Potency against cancer cells. In kind it is cell-based. The method, then:
(§1) Growth over 96 h was assessed.

Data set [1] is described as follows: Tumor and plasma concentration in MDA-MB-468 xenografted mice. In kind it is in vivo. To be noted: 24 hours after intraperitoneal injection. The method, then: (§2) Mice xenografted with MDA-MB-468 human breast cancer tumors were treated by intraperitoneal injection with Compound 5 at a dosage levels of 25, 50, 75, 100 and 150 mg/kg. The concentration of Compound 5 in the tumor 24 hours after administration was determined. […] Compound 5 was further tested for its effects on the pharmacodynamic marker Raf-1 kinase.

The subject of a further data set is Raf-1 kinase. In words: Pharmacodynamic marker in MDA-MB-468 xenograft tumors. It is filed as in vivo, mice. The protocol: as §2
Hsp90 stabilizes this kinase and maintains it in ready-to-be-activated conformation. Inhibition of Hsp90 leads to disruption of the complex and further ubiquitinylation and degradation of Raf-1 by the proteasome. Thus, Raf-1 degradation in tumors is a functional read-out of Hsp90 inhibition.

Data set [2] concerns MRC5 normal lung fibroblasts. As to the kind of experiment: Selectivity SKBr3 versus MRC5 normal cells. It is filed as cell-based.
Data set [3] relates to Hsp90 complexes found in normal heart tissue. In words: Hsp90 competition assay, heart homogenate. It is filed as binding, mouse. To be noted: ratio of EC50 values.
Experimental: (§3) When using cell lysates instead of recombinant protein, the assay measures binding to average. Hsp90 population found in cell specific complexes.
(§4) Hsp90 Competition Assay.Fluorescence polarization measurements were performed on an ANALYST® AD instrument (Molecular Devices, Sunnyvale, Calif.). […] The assay buffer (HFB) contained 20 mM HEPES (K) pH 7.3, 50 mM KCl, 5 mM MgCl2, 20 mM Na2MoO4, 0.01% NP40. Before each use, 0.1 mg/mL bovine gamma globulin (BGG) (Panvera Corporation, Madison, Wis.) and 2 mM DTT (Fisher Biotech, Fair Lawn, N.J.) were freshly added. […] Cell lysates were prepared rupturing cellular membranes by freezing at −70° C. and dissolving the cellular extract in HFB with added protease and phosphotase inhibitors. Organs were harvested from a healthy mouse and homogenized in HFB. Saturation curves were recorded in which GM-BODIPY (5 nM) was treated with increasing amounts of cellular lysates.
Data set [4] has as its system SKBr3 breast cancer cells. As to the kind of experiment: Growth inhibition, sulforhodamine B assay. It is filed as cell-based, human. To be noted: for IC50: growth inhibition, 72 h, average of 3 measurements. The protocol: Cell Culture. The human breast cancer cell lines SKBr3 and MDA-MB-468 were a gift from Dr. Neal Rosen (MSKCC). Cells were maintained in 1:1 mixture of DME:F12 supplemented with 2 mM glutamine, 50 units/mL penicillin, 50 […] and 10% heat inactivated fetal bovine serum (Gemini Bioproducts#100-10b) and incubated at 37° C., 5% CO2. Growth assays. Growth inhibition studies were performed using the sulforhodamine B assay as previously described.^29 In summary, experimental cultures were plated in microtiter plates (Nunc#167008). One column of wells was left without cells to serve as the blank control. Cells were allowed to attach overnight. The following day, growth medium having either drug or DMSO at twice the desired initial concentration was added to the plate in triplicate and was serially diluted at a 1:1 ratio in the microtiter plate. After 72 h of growth, the cell number in treated versus control wells was estimated after treatment with 50% trichloroacetic acid and staining with 0.4% sulforhodamine B in 1% acetic acid. […] Normal human renal proximal tubular epithelial (RPTEC) cells were purchased pre-seeded in 96-well plates (Clonetics, CC-3190). Upon receipt, cells were placed in a humidified incubator at 37° C., 5% CO2 and allowed to equilibrate for 3 h. Media was removed by suction and replaced with fresh media provided by the manufacturer. Cells were then treated with either drugs or DMSO for 72 h and the IC50 values were determined as described above.
(In general: The SRB assay estimates cell density from bound dye.)

The subject of the next data set is Her2 in SKBr3 cells. In words: Her2 assay (microtiter immunoassay of Her2 degradation). It is filed as cell-based, human. To be noted: for IC50: Her2 degradation, SKBr3 cells, 24 h, average of 3 measurements. The method, then: Her2 Assay. SKBr3 cells were plated in black, clear-bottom microtiter plates (Corning#3603) at 3,000 cells/well in growth medium (100 μl) and allowed to attach for 24 h at 37° C. and 5% CO2. Growth medium (100 μl) with drug or vehicle (DMSO) was carefully added to the wells, and the plates were placed at 37° C. and 5% CO2. Following 24 h incubation with drugs, wells were washed with ice-cold Tris buffer saline (TBS) containing 0.1% Tween 20 (TBST) (200 μl). A house vacuum source attached to an eight-channel aspirator was used to remove the liquid from the plates. Further, methanol (100 μl at −20° C.) was added to each well, and the plate was placed at 4° C. for 10 min. Methanol was removed by washing with TBST (2×200 μl). After further incubation at RT for 2 h with SUPERBLOCK® R (Pierce 37535) (200 μl), anti-Her-2 (c-erbB-2) antibody (Zymed Laboratories#28-004) (100 μl, 1:200 in SUPERBLOCK® R) was placed in each well. The plate was incubated overnight at 4° C. For control wells, 1:200 dilution of a normal rabbit IgG (Santa Cruz#SC-2027) in SUPERBLOCK® R was used. Each well was washed with TBST (2×200 μl) and incubated at RT for 2 h with an anti-rabbit HRP-linked antibody (Sigma, A-0545) (100 μl, 1:2000 in SuperBlockR). Unreacted antibody was removed by washing with TBST (3×200 μl), and the ECL™ Western blotting reagent (Amersham #RPN2106) (100 μL) was added. The plate was immediately read in an Analyst AD plate reader (Molecular Devices). Each well was scanned for 0.1 s. Readings from wells containing only control IgG and the corresponding HRP-linked secondary antibody were set as background and deducted from all measured values.

For data set [5], the system named is Hsp90 complexes found in normal lung tissue. As to the kind of experiment: Hsp90 competition assay, lung homogenate. It is filed as binding, mouse. To be noted: ratio of EC50 values.
Experimental: as §3, §4
Data set [6] concerns SCLC cells highly resistant to conventional chemotherapy. In words: Growth inhibition and cell death, FIG. 8. In kind it is cell-based. To be noted: FIG. 8, growth over 96 h. The method, then:
as §1

Data set [7] in a line: Blood brain barrier penetration.
A further data set relates to H69AR. In words: Growth over 96 h, resistant SCLC line. To be noted: SCLC cell line resistant to adriamycin. In kind it is cell-based. The method, then:
as §1

The test system of another data set is small cell lung tumors. As to the kind of experiment: Pharmacodynamics and anti-cancer activity in a model of small cell lung cancer. It is filed as in vivo.
Another data set deals with SKI-Chen. As to the kind of experiment: Growth over 96 h, resistant SCLC line. It is filed as cell-based, human. To be noted: line from a patient who failed every conventional therapy. The method, then: as §1

Turning to `CC(C)NCCCn1c(Cc2cc3c(cc2I)OCO3)nc2c(N)nc(F)nc21` [Example 8, 2-Fluoro-8-(6-iodo-benzo[1,3]dioxol-5-ylmethyl)-9-(3-isopropylamino-propyl) adenine], the Anti-mitotic result with MDA-MB-468 cells is given as “Yes”. The “Potency against cancer cells” value in the data set with cancer cells was “low nanomolar potency”.

In the case of `CC(C)NCCCn1c(Sc2cc3c(cc2Br)OCO3)nc2c(N)ncnc21` [Example 5, 8-(6-Bromo-benzo[1,3]dioxol-5-ylsulfanyl)-9-(3-isopropylamino-propyl)adenine], the Anti-mitotic entry in the data set on MDA-MB-468 cells is “Yes”. Moreover, the Concentration in plasma entry in data set [1] is “could not be detected”. Besides, in the data set with Raf-1 kinase (all dosage levels), the “Raf-1 protein levels in tumor” value is on record as “substantial decrease in Raf-1 levels”. Further, in the data set with Raf-1 kinase (protein unaffected by Hsp90 inhibitors), the “Expression of PD kinase” value was “no change in expression”.

Turning to `Nc1ncnc2nc(Sc3cc(Cl)c(Cl)cc3Cl)[nH]c12` [Example 4, 8-(2,4,5-Trichloro-phenylsulfanyl)adenine], the Anti-mitotic result with MDA-MB-468 cells is reported as “Yes”.

Regarding `C#CCCCn1c(Cc2cc(OC)c(OC)cc2Cl)nc2c(N)nc(F)nc21` [Example 14, 2-Fluoro-8-(2-chloro-4,5-dimethoxy-benzyl)-9-(pent-4-ynyl)adenine], in the data set on MDA-MB-468 cells, the Anti-mitotic result was “No”.

As to `C#CCCCn1c(Sc2cc3c(cc2I)OCO3)nc2c(N)ncnc21` [Example 10, 8-(6-Iodo-benzo[1,3]dioxol-5-ylsulfanyl)-9-(pent-4-ynyl)adenine], the “Selectivity between SKBr3 cells and MRC5 normal lung fibroblasts” value in data set [2] is recorded as “Selectivity was also observed”. In data set [3], the Heart/SKBr3 worked out at 370.

`C#CCCCn1c(Cc2cc3c(cc2I)OCO3)nc2c(N)nc(F)nc21` [Example 11, 2-Fluoro-8-(6-iodo-benzo[1,3]dioxol-5-ylmethyl)-9-(pent-4-ynyl)adenine]: the Anti-mitotic result in the data set on MDA-MB-468 cells is on record as “Yes”.

Consider “9-(Pent-4-ynyl)-8-(2,4,5-trichloro-phenylsulfanyl)adenine [Example 2]”, for which the Anti-mitotic entry in the data set with MDA-MB-468 cells was “No”; with MDA-MB-468 cells (listed as Comp 2), “exhibited anti-mitotic activity and Yes”. Besides, the IC50 – broadly, the point on the concentration scale where inhibition reaches its midpoint – in [4] turned out to be 48400 ± 2500 nM; in [4] (listed as Comp 2), 1800 ± 200 nM; in the data set on Her2 in SKBr3 cells it was 58000 ± 1400 nM; in the data set on Her2 in SKBr3 cells (listed as Comp 2), 1300 ± 400 nM. For the same compound, the “Inhibition of growth in SKBr3 cells” value in data set [4] (result in words) is listed as “inhibition of growth”. The Heart/SKBr3 in data set [3] is on record as 590. Further, the “Her2 degradation in SKBr3 cells” value with Her2 in SKBr3 cells (result in words) is given as “induced Her2 degradation”. In [5], the Lung/SKBr3 came to 2400.

In the case of `C#CCCCn1c(Cc2cc3c(cc2Br)OCO3)nc2c(N)nc(F)nc21` [Example 6, 2-Fluoro-8-(6-bromo-benzo[1,3]dioxol-5-ylmethyl)-9-(pent-4-ynyl)adenine], in the data set with MDA-MB-468 cells, the Anti-mitotic entry was “Yes”.

For `COc1cc(Sc2nc3c(N)ncnc3n2CCOC(C)C)c(Cl)cc1Cl` [Example 3, 9-(2-Isopropoxy-ethyl)-8-(2,4-dichloro-5-methoxy-benzenesulfanyl)adenine], the Anti-mitotic entry with MDA-MB-468 cells is “No”.

`C#CCCCn1c(Cc2cc3c(cc2Cl)OCO3)nc2c(N)nc(F)nc21` [Example 7, 2-Fluoro-8-(6-chloro-benzo[1,3]dioxol-5-ylmethyl)-9-(pent-4-ynyl)adenine]: the Anti-mitotic result with MDA-MB-468 cells is reported as “Yes”.

For `C#CCCCn1c(Cc2cc(OC)c(OC)cc2I)nc2c(N)nc(F)nc21` [Example 12, 2-Fluoro-8-(2-iodo-4,5-dimethoxy-benzyl)-9-(pent-4-ynyl)adenine], the Anti-mitotic result in the data set with MDA-MB-468 cells was “No”.

In the case of `CC(C)NCCCn1c(Sc2cc3c(cc2I)OCO3)nc2c(N)ncnc21` [Example 9, 8-(6-Iodo-benzo[1,3]dioxol-5-ylsulfanyl)-9-(3-isopropylamino-propyl)adenine], the Anti-mitotic entry with MDA-MB-468 cells was “Yes”. For the same compound, in data set [4] (Homo sapiens, SK-BR-3), 90 ± 2 nM corresponded to half-maximal inhibition (IC50). Further, in data set [6], the “Effective concentration lower than PU24FC1” value was “about 20 times”. Further, the “Blood brain barrier penetration” value in data set [7] is recorded as “ability to cross the blood brain barrier”. In addition, the Heart/SKBr3 in data set [3] was found to be 140. The “Potency against cancer cells” value in the data set with cancer cells is “low nanomolar potency”. For the same compound, in the data set with Her2 in SKBr3 cells (Homo sapiens, SK-BR-3), inhibition was half-maximal at 100 ± 10 nM (IC50). For the same compound, the “Activity in H69AR” value in the data set with H69AR was “retains its activity”. Also, the Lung/SKBr3 in data set [5] came out at 48. Also, in the data set on small cell lung tumors (comparable to 17AAG), the Tumor growth inhibition entry is “efficiently inhibited the growth of this tumor”. In the data set on small cell lung tumors (in vivo), the “Apoptosis of the tumor (PARP cleavage)” value is given as “induces significant apoptosis of the tumor”, the “Duration of downregulation of Hsp90 client proteins in tumor” value is reported as “more than 36 h” and the “Toxicity to the host” value was “without toxicity to the host”. In the data set with small cell lung tumors (one administered dose), the “Raf-1 and Akt in tumor” value was “efficiently degraded or inactivated”. In the data set on SKI-Chen, the “Activity in SKI-Chen” value is “retains its activity”.

With `C#CCCCn1c(Cc2cc(OC)c(OC)cc2Br)nc2c(N)nc(F)nc21` [Example 13, 2-Fluoro-8-(2-bromo-4,5-dimethoxy-benzyl)-9-(pent-4-ynyl)adenine], the Anti-mitotic result in the data set on MDA-MB-468 cells was “No”.
